In PubChem BioAssay (NCI):
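Abbreviation: GI50, concentration required for 50% inhibition of growth. Definition used: TGI = concentration required for complete inhibition of growth.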

Legend:
Test in all cases: NCI tumour cell line growth inhibition, 384-well format
SNB-19 CNS = tested on: SNB-19 CNS
SF-268 CNS = tested on: SF-268 CNS
ACHN renal = tested on: ACHN renal
MOLT-4 leukemia = tested on: MOLT-4 leukemia
MDA-MB-435 melanoma = tested on: MDA-MB-435 melanoma
HCT-116 colon = tested on: HCT-116 colon
HCT-15 colon = tested on: HCT-15 colon
OVCAR-5 ovarian = tested on: OVCAR-5 ovarian
A549 NSCLC = tested on: A549 NSCLC
MCF7 breast = tested on: MCF7 breast
UACC-62 melanoma = tested on: UACC-62 melanoma
SK-OV-3 ovarian = tested on: SK-OV-3 ovarian
CCRF-CEM leukemia = tested on: CCRF-CEM leukemia
NCI-H23 lung = tested on: NCI-H23 lung
HS 578T breast = tested on: HS 578T breast
RPMI-8226 leukemia = tested on: RPMI-8226 leukemia
CAKI-1 renal = tested on: CAKI-1 renal
EKVX NSCLC = tested on: EKVX NSCLC
SN12C renal = tested on: SN12C renal
HOP-62 NSCLC = tested on: HOP-62 NSCLC
A498 renal = tested on: A498 renal
DU-145 prostate = tested on: DU-145 prostate
HL-60(TB) leukemia = tested on: HL-60(TB) leukemia
HOP-92 NSCLC = tested on: HOP-92 NSCLC
NCI-H460 NSCLC = tested on: NCI-H460 NSCLC
SK-MEL-28 melanoma = tested on: SK-MEL-28 melanoma
SR leukemia = tested on: SR leukemia
SK-MEL-5 melanoma = tested on: SK-MEL-5 melanoma
TK-10 renal = tested on: TK-10 renal
IGROV1 ovarian = tested on: IGROV1 ovarian
SW-620 colon = tested on: SW-620 colon
LOX IMVI melanoma = tested on: LOX IMVI melanoma
M14 melanoma = tested on: M14 melanoma
UO-31 renal = tested on: UO-31 renal
OVCAR-3 ovarian = tested on: OVCAR-3 ovarian
UACC-257 melanoma = tested on: UACC-257 melanoma
NCI-H522 lung = tested on: NCI-H522 lung
HT29 colon = tested on: HT29 colon
MDA-MB-468 breast = tested on: MDA-MB-468 breast
HCC-2998 colon = tested on: HCC-2998 colon
MALME-3M melanoma = tested on: MALME-3M melanoma
MDA-MB-231 breast = tested on: MDA-MB-231 breast
K-562 leukemia = tested on: K-562 leukemia
RXF 393 renal = tested on: RXF 393 renal
PC-3 prostate = tested on: PC-3 prostate
KM12 colon = tested on: KM12 colon
SNB-75 CNS = tested on: SNB-75 CNS

SMILES: CS(=O)(=O)c1ccc(Oc2cc(F)cc(C#N)c2)c2c1[C@H](O)C(F)(F)C2
- GI50 (SNB-19 CNS): > 100 µM
- TGI (SNB-19 CNS): > 100 µM
- GI50 (SF-268 CNS): > 100 µM
- TGI (SF-268 CNS): > 100 µM
- GI50 (ACHN renal): > 100 µM
- TGI (ACHN renal): > 100 µM
- GI50 (MOLT-4 leukemia): > 86.1 µM
- TGI (MOLT-4 leukemia): > 100 µM
- GI50 (MDA-MB-435 melanoma): > 100 µM
- TGI (MDA-MB-435 melanoma): > 100 µM
- GI50 (HCT-116 colon): > 100 µM
- TGI (HCT-116 colon): > 100 µM
- GI50 (HCT-15 colon): > 100 µM
- TGI (HCT-15 colon): > 100 µM
- GI50 (OVCAR-5 ovarian): > 100 µM
- TGI (OVCAR-5 ovarian): > 100 µM
- GI50 (A549 NSCLC): > 100 µM
- TGI (A549 NSCLC): > 100 µM
- GI50 (MCF7 breast): > 100 µM
- TGI (MCF7 breast): > 100 µM
- GI50 (UACC-62 melanoma): > 100 µM
- TGI (UACC-62 melanoma): > 100 µM
- GI50 (SK-OV-3 ovarian): > 100 µM
- TGI (SK-OV-3 ovarian): > 100 µM
- GI50 (CCRF-CEM leukemia): > 100 µM
- TGI (CCRF-CEM leukemia): > 100 µM
- GI50 (NCI-H23 lung): > 100 µM
- TGI (NCI-H23 lung): > 100 µM
- GI50 (HS 578T breast): > 100 µM
- TGI (HS 578T breast): > 100 µM
- GI50 (RPMI-8226 leukemia): > 100 µM
- TGI (RPMI-8226 leukemia): > 100 µM
- GI50 (CAKI-1 renal): > 78.9 µM
- TGI (CAKI-1 renal): > 100 µM
- GI50 (EKVX NSCLC): > 100 µM
- TGI (EKVX NSCLC): > 100 µM
- GI50 (SN12C renal): > 100 µM
- TGI (SN12C renal): > 100 µM
- GI50 (HOP-62 NSCLC): > 100 µM
- TGI (HOP-62 NSCLC): > 100 µM
- GI50 (A498 renal): > 100 µM
- TGI (A498 renal): > 100 µM
- GI50 (DU-145 prostate): > 100 µM
- TGI (DU-145 prostate): > 100 µM
- GI50 (HL-60(TB) leukemia): > 66 µM
- TGI (HL-60(TB) leukemia): > 100 µM
- GI50 (HOP-92 NSCLC): > 100 µM
- TGI (HOP-92 NSCLC): > 100 µM
- GI50 (NCI-H460 NSCLC): > 100 µM
- TGI (NCI-H460 NSCLC): > 100 µM
- GI50 (SK-MEL-28 melanoma): > 100 µM
- TGI (SK-MEL-28 melanoma): > 100 µM
- GI50 (SR leukemia): > 73.6 µM
- TGI (SR leukemia): > 100 µM
- GI50 (SK-MEL-5 melanoma): > 100 µM
- TGI (SK-MEL-5 melanoma): > 100 µM
- GI50 (TK-10 renal): > 100 µM
- TGI (TK-10 renal): > 100 µM
- GI50 (IGROV1 ovarian): > 100 µM
- TGI (IGROV1 ovarian): > 100 µM
- GI50 (SW-620 colon): > 100 µM
- TGI (SW-620 colon): > 100 µM
- GI50 (LOX IMVI melanoma): > 100 µM
- TGI (LOX IMVI melanoma): > 100 µM
- GI50 (M14 melanoma): > 100 µM
- TGI (M14 melanoma): > 100 µM
- GI50 (UO-31 renal): > 100 µM
- TGI (UO-31 renal): > 100 µM
- GI50 (OVCAR-3 ovarian): > 100 µM
- TGI (OVCAR-3 ovarian): > 100 µM
- GI50 (UACC-257 melanoma): > 100 µM
- TGI (UACC-257 melanoma): > 100 µM
- GI50 (NCI-H522 lung): > 100 µM
- TGI (NCI-H522 lung): > 100 µM
- GI50 (HT29 colon): > 100 µM
- TGI (HT29 colon): > 100 µM
- GI50 (MDA-MB-468 breast): > 100 µM
- TGI (MDA-MB-468 breast): > 100 µM
- GI50 (HCC-2998 colon): > 100 µM
- TGI (HCC-2998 colon): > 100 µM
- GI50 (MALME-3M melanoma): > 100 µM
- TGI (MALME-3M melanoma): > 100 µM
- GI50 (MDA-MB-231 breast): > 100 µM
- TGI (MDA-MB-231 breast): > 100 µM
- GI50 (K-562 leukemia): > 100 µM
- TGI (K-562 leukemia): > 100 µM
- GI50 (RXF 393 renal): > 100 µM
- TGI (RXF 393 renal): > 100 µM
- GI50 (PC-3 prostate): > 100 µM
- TGI (PC-3 prostate): > 100 µM
- GI50 (KM12 colon): > 100 µM
- TGI (KM12 colon): > 100 µM
- GI50 (SNB-75 CNS): > 100 µM
- TGI (SNB-75 CNS): > 100 µM

SMILES: CC(C)n1c(=O)n(C)c2cnc3cc(F)c(-c4ccc(OCCCN5CCCCC5)nc4)cc3c21
- GI50 (SNB-19 CNS): > 95.5 µM
- TGI (SNB-19 CNS): > 100 µM
- GI50 (SF-268 CNS): 45.4 µM
- TGI (SF-268 CNS): > 100 µM
- GI50 (ACHN renal): > 60.2 µM
- TGI (ACHN renal): > 100 µM
- GI50 (MOLT-4 leukemia): 5.66 µM
- TGI (MOLT-4 leukemia): > 40.4 µM
- GI50 (MDA-MB-435 melanoma): > 100 µM
- TGI (MDA-MB-435 melanoma): > 100 µM
- GI50 (HCT-116 colon): 21.7 µM
- TGI (HCT-116 colon): > 100 µM
- GI50 (HCT-15 colon): 52.3 µM
- TGI (HCT-15 colon): > 100 µM
- GI50 (OVCAR-5 ovarian): > 100 µM
- TGI (OVCAR-5 ovarian): > 100 µM
- GI50 (A549 NSCLC): > 100 µM
- TGI (A549 NSCLC): > 100 µM
- GI50 (MCF7 breast): > 56.4 µM
- TGI (MCF7 breast): > 100 µM
- GI50 (UACC-62 melanoma): 31.9 µM
- TGI (UACC-62 melanoma): > 100 µM
- GI50 (SK-OV-3 ovarian): > 62.5 µM
- TGI (SK-OV-3 ovarian): > 100 µM
- GI50 (CCRF-CEM leukemia): 10.1 µM
- TGI (CCRF-CEM leukemia): > 46.7 µM
- GI50 (NCI-H23 lung): > 77.1 µM
- TGI (NCI-H23 lung): > 100 µM
- GI50 (HS 578T breast): 3.91 µM
- TGI (HS 578T breast): 27.4 µM
- GI50 (RPMI-8226 leukemia): 6.13 µM
- TGI (RPMI-8226 leukemia): 42.1 µM
- GI50 (CAKI-1 renal): 16.7 µM
- TGI (CAKI-1 renal): > 95.8 µM
- GI50 (EKVX NSCLC): 11.6 µM
- TGI (EKVX NSCLC): > 100 µM
- GI50 (SN12C renal): 25.8 µM
- TGI (SN12C renal): > 100 µM
- GI50 (HOP-62 NSCLC): > 33.2 µM
- TGI (HOP-62 NSCLC): > 100 µM
- GI50 (A498 renal): > 73.4 µM
- TGI (A498 renal): > 100 µM
- GI50 (DU-145 prostate): > 89.7 µM
- TGI (DU-145 prostate): > 100 µM
- GI50 (HL-60(TB) leukemia): 11.8 µM
- TGI (HL-60(TB) leukemia): 47 µM
- GI50 (HOP-92 NSCLC): > 54.4 µM
- TGI (HOP-92 NSCLC): > 100 µM
- GI50 (NCI-H460 NSCLC): 18.6 µM
- TGI (NCI-H460 NSCLC): > 100 µM
- GI50 (SK-MEL-28 melanoma): > 100 µM
- TGI (SK-MEL-28 melanoma): > 100 µM
- GI50 (SR leukemia): 7.14 µM
- TGI (SR leukemia): 19.4 µM
- GI50 (SK-MEL-5 melanoma): > 38.4 µM
- TGI (SK-MEL-5 melanoma): > 100 µM
- GI50 (TK-10 renal): 51.7 µM
- TGI (TK-10 renal): > 100 µM
- GI50 (IGROV1 ovarian): > 100 µM
- TGI (IGROV1 ovarian): > 100 µM
- GI50 (SW-620 colon): 19.5 µM
- TGI (SW-620 colon): > 75.8 µM
- GI50 (LOX IMVI melanoma): 72.5 µM
- TGI (LOX IMVI melanoma): > 100 µM
- GI50 (M14 melanoma): > 75.7 µM
- TGI (M14 melanoma): > 100 µM
- GI50 (UO-31 renal): 83.8 µM
- TGI (UO-31 renal): > 100 µM
- GI50 (OVCAR-3 ovarian): 38.9 µM
- TGI (OVCAR-3 ovarian): > 100 µM
- GI50 (UACC-257 melanoma): 36.3 µM
- TGI (UACC-257 melanoma): > 100 µM
- GI50 (NCI-H522 lung): 20.8 µM
- TGI (NCI-H522 lung): > 82 µM
- GI50 (HT29 colon): 22.3 µM
- TGI (HT29 colon): > 87.2 µM
- GI50 (MDA-MB-468 breast): 24.8 µM
- TGI (MDA-MB-468 breast): > 100 µM
- GI50 (HCC-2998 colon): 30.5 µM
- TGI (HCC-2998 colon): > 80.3 µM
- GI50 (MALME-3M melanoma): > 100 µM
- TGI (MALME-3M melanoma): > 100 µM
- GI50 (MDA-MB-231 breast): 36.3 µM
- TGI (MDA-MB-231 breast): > 100 µM
- GI50 (K-562 leukemia): 4.93 µM
- TGI (K-562 leukemia): > 46.8 µM
- GI50 (RXF 393 renal): > 63.4 µM
- TGI (RXF 393 renal): > 100 µM
- GI50 (PC-3 prostate): 19.6 µM
- TGI (PC-3 prostate): > 100 µM
- GI50 (KM12 colon): 4.57 µM
- TGI (KM12 colon): > 100 µM
- GI50 (SNB-75 CNS): 20.6 µM
- TGI (SNB-75 CNS): > 100 µM
